The results in this text go back to paper PMC12595484, “Optimizing multifunctional fluorescent ligands for intracellular labeling” (Proceedings of the National Academy of Sciences of the …, 2025).

The subject of this test is HEK293T cells expressing msGFP–HaloTag localized to the mitochondrial outer membrane. Kind of test: HEK293T labeling and fluorescence microscopy. In kind it is cell-based. From the text: Plasmid construction for mitochondria imaging and affinity purification. HaloTag, amplified from the pHTC HaloTag CMV-neo Vector (Promega; G7711) and monomeric-superfolder green fluorescent protein (msGFP; lab stock), was fused to the mitochondrial targeting signal from OMP25,8 interspacing flexible GS(GSS)4 linkers between each domain by PCR Splicing by Overlap Extension (SOE). This construct was subcloned into hSynapsin promoter bearing a copy of FUGW.9 FUGW was a gift from David Baltimore (Addgene plasmid # 14883; RRID:
Addgene_14883).10 This construct was designated as pF(UG) hSyn HaloTag-TEV-4×GS-msGFP- […]
HEK293T cell culture. HEK293T cells (ATCC) were passaged before 80% confluency by trypsinization (Corning; 25-053-CI) and trituration. The cell suspension was then plated on glass coverslips (Warner instruments; 64-0734, CS-18R17) coated with poly-D-lysine (Thermofisher; ICN10269491) and cultured in Dulbecco's modified Eagle medium (DMEM; ThermoFisher; 11965-118) supplemented with 10% (v/v) fetal bovine serum (FBS, Atlanta Biological) and penicillin/streptomycin (pen/strep; ThermoFisher; MT-30-001-CI) at 37 °C in a humidified 5% (v/v) CO2 environment following ATCC guidelines. These HEK293T cells were tested for mycoplasma contamination using the Universal Mycoplasma Detection Kit (ATCC; 30-1012K) and validated using Short Tandem Repeat profiling by ATCC (ATCC; 135-XV) within the previous year or were from newly purchased stock from ATCC. HEK293T cells were transfected with pF(UG) hSyn HaloTag-TEV-4×GS-msGFP-mito using a standard calcium phosphate protocol11 or using lipofectamine LTX reagent (ThermoFisher; 15338100). We note that this plasmid is optimized for lentivirus-mediated expression, but robust expression in HEK293T cells […]
HEK293T labeling and fluorescence microscopy. One day after HEK293T cell transfection, the GFP fluorescence signal was confirmed, and HaloTag ligand labeling experiments were conducted. For pulse–chase experiments, HEK293T cells were incubated with biotin-HaloTag ligand (17HTL; #G8281, Promega) at either 100 nM or 10 μM for 1 hour at 37 °C and chased with 100 nM of JF549-HaloTag ligand (2HTL). We also evaluated a commercial biotin-HaloTag ligand […]
indicated in the product information12 and from a previous publication.13 For labeling with biotin-JF-HaloTag ligands 13HTL–16HTL, cells were incubated with 100 nM or 1 µM ligand for 0.5–2 h at 37 °C. For imaging, the coverslips containing HEK293T cells were fixed with 4% (w/v) paraformaldehyde in PBS at 37 °C for 10 min, washed with PBS (3×), and mounted on glass slides with ProLong Glass Antifade Mountant with NucBlueTM Stain (ThermoFisher; P36981). These cells were imaged using a Zeiss LSM 880 with Airyscan and a plan-apochromatic 63×/1.40 oil objective in Fast Airyscan mode. The same image acquisition settings were used for each trial and condition. Images were then processed with automatic Airyscan deconvolution settings. For quantitation of labeling intensity, ROIs were drawn surrounding individual HEK cells, and the average fluorescence ratio (JF/msGFP) from multiple cells in each condition was measured; no background subtraction was necessary. […]
JF608-HaloTag ligand (14HTL), biotin-JF646-HaloTag ligand (15HTL), or biotin-JF635-HaloTag ligand (16HTL) for 1 h at 37 °C, washed 3× with dye-free media, then fixed with 4% paraformaldehyde in 0.1 M phosphate buffer for 15 min at 37 °C. Fixed cells were then washed 3× in 1× PBS and incubated with Hoechst 33342 (5µg/mL) for 15 min at 22 °C as a nuclear counterstain. Airyscan imaging was performed on a Zeiss LSM 980 with Airyscan 2 confocal microscope using a Plan APO 63×/1.4 oil DIC M27 objective. The same acquisition settings were used for all constructs labeled with 13HTL–16HTL. These single plane images were bulk processed in ZEN Blue (Zeiss) with automatic Airyscan settings.
Dye loading kinetics. Live U2OS.H2B.HaloTag stable cells were labeled over a time course of […]
With `C[Si]1(C)c2cc(N3CC(F)C3)ccc2C2(OC(=O)c3ccc(C(=O)NCCOCCOCCCCCCCl)cc32)c2ccc(N3CC(F)C3)cc21` [6HTL, JF635–HaloTag ligand, reference compound], the “Pearson's correlation coefficient between rhodamine and GFP signals” value is given as 0.92.

For `O=C(CCCCC1SCC2NC(=O)NC21)NCCOCCOCCNC(=O)C1C[N+](=c2ccc3c(-c4cc(C(=O)NCCOCCOCCCCCCCl)ccc4C(=O)[O-])c4ccc(N5CCC5)cc4oc-3c2)C1` (stereo not drawn) [13HTL, biotin–JF549–HaloTag ligand], the “intracellular labeling by live-cell imaging” value (“intracellular labeling” below) is recorded as “low intracellular signal”.

`C[Si]1(C)C2=CC(=[N+]3CC(C(=O)NCCOCCOCCNC(=O)CCCC[C@@H]4SC[C@@H]5NC(=O)N[C@@H]54)C3)C=CC2=C(c2cc(C(=O)NCCOCCOCCCCCCCl)ccc2C(=O)[O-])c2ccc(N3CCC3)cc21` (stereo partly drawn) [15HTL, biotin–JF646–HaloTag ligand]: the “Pearson's correlation coefficient between rhodamine and GFP signals” value came out at 0.89; the “intracellular labeling” value is “robust labeling and colocalization with mitochondrial-localized GFP”.

For `C[Si]1(C)C2=CC(=[N+]3CC(F)(C(=O)NCCOCCOCCNC(=O)CCCC[C@@H]4SC[C@@H]5NC(=O)N[C@@H]54)C3)C=CC2=C(c2cc(C(=O)NCCOCCOCCCCCCCl)ccc2C(=O)[O-])c2ccc(N3CC(F)C3)cc21` (stereo partly drawn) [16HTL, biotin–JF635–HaloTag ligand], the “Pearson's correlation coefficient between rhodamine and GFP signals” value is 0.87; the “intracellular labeling” value was “robust labeling and colocalization with mitochondrial-localized GFP”.
